Data published in patent US20240199640A1, “NEGATIVE ALLOSTERIC MODULATORS OF METABOTROPIC GLUTAMATE RECEPTOR 2” (priority 2021, published 2024).
Where “and” joins values, the source holds several entries; their conditions need not be identical. Equal values may be shown once.

Columns and labels:
human mGlu2 = biological target: T1, human mGlu2 (Homo sapiens, UniProt Q14416); assay: mGlu GIRK cell-based thallium flux assay, human mGlu2; conditions: HEK-293 cells co-expressing human mGlu2 and GIRK; EC80 glutamate; Tl flux
T1 construct: expressed in transfected cells; host or cells: HEK-293
T1 sequence (Q14416 19-872): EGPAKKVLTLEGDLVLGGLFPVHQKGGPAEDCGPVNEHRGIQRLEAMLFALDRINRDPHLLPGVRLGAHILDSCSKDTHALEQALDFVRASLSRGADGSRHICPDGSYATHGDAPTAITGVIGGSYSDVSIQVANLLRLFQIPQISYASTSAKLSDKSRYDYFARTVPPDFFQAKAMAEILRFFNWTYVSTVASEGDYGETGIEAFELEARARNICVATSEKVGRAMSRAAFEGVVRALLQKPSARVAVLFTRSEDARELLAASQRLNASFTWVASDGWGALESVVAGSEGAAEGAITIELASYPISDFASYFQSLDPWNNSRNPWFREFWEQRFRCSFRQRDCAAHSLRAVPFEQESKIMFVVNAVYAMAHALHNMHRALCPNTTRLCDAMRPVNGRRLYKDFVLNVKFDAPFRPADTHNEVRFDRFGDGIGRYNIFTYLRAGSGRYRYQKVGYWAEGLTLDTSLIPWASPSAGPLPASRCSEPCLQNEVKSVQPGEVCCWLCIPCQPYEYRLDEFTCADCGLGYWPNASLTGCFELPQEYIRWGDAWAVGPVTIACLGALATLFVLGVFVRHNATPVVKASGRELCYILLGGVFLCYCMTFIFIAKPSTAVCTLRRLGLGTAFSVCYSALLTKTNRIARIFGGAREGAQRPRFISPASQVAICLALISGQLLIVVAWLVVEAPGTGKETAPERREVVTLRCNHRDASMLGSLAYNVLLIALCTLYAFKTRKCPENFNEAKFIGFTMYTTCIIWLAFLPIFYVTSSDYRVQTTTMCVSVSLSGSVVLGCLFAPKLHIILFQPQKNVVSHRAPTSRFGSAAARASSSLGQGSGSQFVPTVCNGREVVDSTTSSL
Experimental: (§1) The day before the assay, GIRK cells co-expressing human mGlu3, human or rat mGlu2, as described above, were plated in black-walled, clear-bottomed, amine-coated 384-well plates at a density of 15,000 cells/20 μL/well in the assay medium (glutamine-depleted basal DMEM supplemented with 10% dialyzed FBS, 20 mM HEPES, 1 mM sodium pyruvate). Cells were incubated at 37° C. in the presence of 5% CO2. […] Cells were washed with assay buffer using a microplate washer to remove the medium, resulting in 20 μL of buffer remaining in each well. Immediately, 20 μL of 2× Thallos dye solution was added to cells, and incubated for one hour at 25° C. During the cell dye loading incubation period, a 10-point concentration serial dilution of compound was created from a 10 mM DMSO compound stock by performing a 1:3 serial dilution in DMSO using the Bravo liquid handler. The 2× compound plate was generated by transferring 0.24 μL of the diluted compound in each well to a daughter plate using an Echo acoustic liquid handler.
(§2) After dye-loading, cell plates were washed with assay buffer to remove excess extracellular dye using a microplate washer, resulting in 20 μL of buffer remaining in each well. After a ten-minute equilibration period, cell, compound and agonist plates were loaded into a Hamamatsu μCell kinetic imaging plate reader equipped with liquid handler to monitor fluorescence changes at 480 nm excitation and 540 nm emission settings. Briefly, after collection of baseline fluorescence, 20 μL of compound was added and incubated for two minutes and twenty seconds. This is immediately followed by adding 10 μL of glutamate-thallium buffer to the wells containing compound. The fluorescent signal was monitored an additional 2.5 minutes after the glutamate addition. Multiple reference wells containing no compound received either no glutamate (for a baseline reference), […] glutamate, or ECmax glutamate (for normalization to maximum response). Fluorescence was measured throughout the experiment at a frequency of 1 measurement per every 2 seconds before the glutamate addition and a frequency of 1 measurement per every 1 second after the glutamate addition. Each compound concentration series occurred one time in each plate, and replicates from two or three plates were used in each experimental run. Thallium solutions were handled and disposed of according to guidelines from the Vanderbilt University Chemical Safety department.
(§3) Data were normalized using a static ratio function (F/F0) by dividing every fluorescent measurement by the initial fluorescent value for the corresponding well. The increase in signal resulting from the glutamate/thallium addition of the second add was measured by determining the slope from 3 seconds to 13 seconds after the addition. The average of all baseline slopes (no compound, no glutamate) was determined and this value was subtracted from all other slope values. The average of all ECmax slopes was determined and this value was used to normalize the baseline-corrected slopes to a percent max value (% Emax). The % Emax values for each compound series were plotted versus the log of the concentration and fit to a 4-parameter logistical equation with no fixed parameters.
(§4) Potency is reported as the IC50 resulting from the curve fit.

human mGlu3 = biological target: T2, human mGlu3 (Homo sapiens, UniProt Q14832); assay: mGlu GIRK cell-based thallium flux assay, human mGlu3; conditions: HEK-293 cells co-expressing human mGlu3 and GIRK; EC80 glutamate; Tl flux
T2 construct: expressed in transfected cells; host or cells: HEK-293
T2 sequence (Q14832 23-879): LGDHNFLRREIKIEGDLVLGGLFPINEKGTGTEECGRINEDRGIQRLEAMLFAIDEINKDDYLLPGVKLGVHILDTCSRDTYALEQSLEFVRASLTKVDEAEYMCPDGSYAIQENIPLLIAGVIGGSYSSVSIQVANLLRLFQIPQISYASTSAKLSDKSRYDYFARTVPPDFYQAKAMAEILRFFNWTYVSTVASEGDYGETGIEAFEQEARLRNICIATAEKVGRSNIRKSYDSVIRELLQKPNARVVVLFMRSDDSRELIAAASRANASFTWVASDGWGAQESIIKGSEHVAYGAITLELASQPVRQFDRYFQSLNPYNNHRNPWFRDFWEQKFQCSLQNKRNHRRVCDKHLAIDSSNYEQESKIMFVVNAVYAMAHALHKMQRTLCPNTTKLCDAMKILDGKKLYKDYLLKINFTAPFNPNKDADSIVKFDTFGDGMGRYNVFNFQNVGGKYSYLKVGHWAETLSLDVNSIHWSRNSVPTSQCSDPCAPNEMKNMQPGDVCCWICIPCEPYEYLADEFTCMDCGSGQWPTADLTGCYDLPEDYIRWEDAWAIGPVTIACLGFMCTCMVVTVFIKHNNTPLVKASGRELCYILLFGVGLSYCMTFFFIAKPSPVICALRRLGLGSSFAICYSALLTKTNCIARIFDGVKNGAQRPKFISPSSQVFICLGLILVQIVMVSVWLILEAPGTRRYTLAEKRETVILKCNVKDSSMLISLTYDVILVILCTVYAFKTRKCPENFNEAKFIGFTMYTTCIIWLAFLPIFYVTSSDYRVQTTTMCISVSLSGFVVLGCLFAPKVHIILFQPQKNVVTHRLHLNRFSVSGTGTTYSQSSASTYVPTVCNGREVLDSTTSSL
Experimental: Human embryonic kidney (HEK-293) cell lines stably co-expressing human or rat mGlu2 and G protein-coupled inwardly rectifying potassium (GIRK) channels, or human mGlu3 and GIRK, were used for in vitro evaluation of compound activity in thallium flux assay using a fluorescent thallium indicator dye.
The day before the assay, GIRK cells co-expressing human mGlu3, human or rat mGlu2, as described above, were plated in black-walled, clear-bottomed, amine-coated 384-well plates at a density of 15,000 cells/20 μL/well in the assay medium (glutamine-depleted basal DMEM supplemented with 10% dialyzed FBS, 20 mM HEPES, 1 mM sodium pyruvate). Cells were incubated at 37° C. in the presence of 5% CO2. The next day, assay buffer (Hanks balanced salt solution, 20 mM HEPES, 4.16 mM sodium bicarbonate, pH 7.2) was prepared to dilute compounds and Thallos AM fluorescent dye solution. The 2× Thallos dye solution (final concentration 0.34 μM to the cells) was prepared by mixing the dye stock (2.97 mM in DMSO) to 1:1 with 10% pluronic acid before adding to the assay buffer. Cells were washed with assay buffer using a microplate washer to remove the medium, resulting in 20 μL of buffer remaining in each well. Immediately, 20 μL of 2× Thallos dye solution was added to cells, and incubated for one hour at 25° C. During the cell dye loading incubation period, a 10-point concentration serial dilution of compound was created from a 10 mM DMSO compound stock by performing a 1:3 serial dilution in DMSO using the Bravo liquid handler. The 2× compound plate was generated by transferring 0.24 μL of the diluted compound in each well to a daughter plate using an Echo acoustic liquid handler. This is further diluted in 40 μL assay buffer, resulting in a range from 30 μM to 1.5 nM final concentration in the assay. The agonist plate (5×) was prepared to include EC80 glutamate concentration (a concentration to elicit 80% of a maximally effective glutamate concentration) in thallium buffer (125 mM […], 1 mM magnesium sulfate, 1.8 mM calcium sulfate, 5 mM glucose, 10 mM HEPES, pH 7.2, 12.5 mM thallium sulfate).
as §2
Data were normalized using a static ratio function (F/F0) by dividing every fluorescent measurement by the initial fluorescent value for the corresponding well. The increase in signal resulting from the glutamate/thallium addition of the second add was measured by determining the slope from 3 seconds to 13 seconds after the addition. […]

rat mGlu2 = biological target: T3, rat mGlu2 (Rattus norvegicus, UniProt P31421); assay: mGlu GIRK cell-based thallium flux assay, rat mGlu2; conditions: rat mGlu2 GIRK IC50 (nM), HEK-293 cells co-expressing rat mGlu2 and GIRK; EC80 glutamate; Tl flux
T3 construct: expressed in transfected cells; host or cells: HEK-293
T3 sequence (P31421 19-872): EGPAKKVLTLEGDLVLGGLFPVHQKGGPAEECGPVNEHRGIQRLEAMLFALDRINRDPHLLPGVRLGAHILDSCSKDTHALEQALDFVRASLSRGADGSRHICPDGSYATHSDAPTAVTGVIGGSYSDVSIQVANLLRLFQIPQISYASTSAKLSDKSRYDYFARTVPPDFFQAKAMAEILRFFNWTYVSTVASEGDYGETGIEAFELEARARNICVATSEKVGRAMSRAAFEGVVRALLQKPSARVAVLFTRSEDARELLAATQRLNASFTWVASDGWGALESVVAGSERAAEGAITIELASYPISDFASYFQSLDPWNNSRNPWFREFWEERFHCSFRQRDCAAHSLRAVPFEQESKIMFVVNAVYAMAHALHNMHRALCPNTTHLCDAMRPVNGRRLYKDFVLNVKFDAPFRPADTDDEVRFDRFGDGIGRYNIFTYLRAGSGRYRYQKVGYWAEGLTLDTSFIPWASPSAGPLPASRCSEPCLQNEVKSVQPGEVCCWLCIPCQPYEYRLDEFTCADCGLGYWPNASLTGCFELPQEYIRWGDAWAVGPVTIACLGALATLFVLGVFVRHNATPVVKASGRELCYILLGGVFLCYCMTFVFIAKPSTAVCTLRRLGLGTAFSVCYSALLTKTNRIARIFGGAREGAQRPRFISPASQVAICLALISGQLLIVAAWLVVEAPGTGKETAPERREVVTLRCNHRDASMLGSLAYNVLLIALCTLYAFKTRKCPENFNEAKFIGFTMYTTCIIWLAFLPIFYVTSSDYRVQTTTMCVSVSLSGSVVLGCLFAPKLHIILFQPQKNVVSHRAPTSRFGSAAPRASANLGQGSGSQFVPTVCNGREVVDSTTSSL
Experimental: as §1, §2, §3, §4

SMILES: Cn1ccc(COc2cc3c(cc2-c2ccc(F)cc2)C(=O)NC3)n1 [Compound 1, 6-(4-fluorophenyl)-5-((1-methyl-1H-pyrazol-3-yl)methoxy)isoindolin-1-one]
- IC50 (human mGlu2): 0.594 µM
- Human mGlu3 GIRK IC50 (nM) (human mGlu3): Inactive

SMILES: Cc1ncc(COc2cc3c(cc2-c2ccc(F)cc2)C(=O)NC3)s1 [Compound 2, 6-(4-fluorophenyl)-5-((2-methylthiazol-5-yl)methoxy)isoindolin-1-one]
- IC50 (human mGlu2): 0.38 µM
- Human mGlu3 GIRK IC50 (nM) (human mGlu3): Inactive

SMILES: Cc1csc(COc2cc3c(cc2-c2ccc(F)cc2)C(=O)NC3)n1 [Compound 3, 6-(4-fluorophenyl)-5-((4-methylthiazol-2-yl)methoxy)isoindolin-1-one]
- IC50 (human mGlu2): 0.418 µM
- Human mGlu3 GIRK IC50 (nM) (human mGlu3): Inactive

SMILES: CC(C)n1ccc(COc2cc3c(cc2-c2ccc(F)cc2)C(=O)NC3)n1 [Compound 4, 6-(4-fluorophenyl)-5-((1-isopropyl-1H-pyrazol-3-yl)methoxy)isoindolin-1-one]
- IC50 (human mGlu2): 0.261 µM
- Human mGlu3 GIRK IC50 (nM) (human mGlu3): Inactive

SMILES: Cc1ccc(COc2cc3c(cc2-c2ccc(F)cc2)C(=O)NC3)cn1 [Compound 5, 6-(4-fluorophenyl)-5-((6-methylpyridin-3-yl)methoxy)isoindolin-1-one]
- IC50 (human mGlu2): 0.392 µM
- Human mGlu3 GIRK IC50 (nM) (human mGlu3): Inactive

SMILES: O=C1NCc2cc(OCc3ccncc3)c(-c3ccc(F)cc3)cc21 [Compound 6, 6-(4-fluorophenyl)-5-(pyridin-4-ylmethoxy)isoindolin-1-one]
- IC50 (human mGlu2): 0.237 µM
- Human mGlu3 GIRK IC50 (nM) (human mGlu3): Inactive

SMILES: COc1cccc(COc2cc3c(cc2-c2ccc(F)cc2)C(=O)NC3)c1 [Compound 7, 6-(4-fluorophenyl)-5-((3-methoxybenzyl)oxy)isoindolin-1-one]
- IC50 (human mGlu2): 8.29 µM
- Human mGlu3 GIRK IC50 (nM) (human mGlu3): Inactive

SMILES: O=C1NCc2cc(OCc3ccccc3F)c(-c3ccc(F)cc3)cc21 [Compound 8, 5-((2-fluorobenzyl)oxy)-6-(4-fluorophenyl)isoindolin-1-one]
- IC50 (human mGlu2): 3.2 µM
- Human mGlu3 GIRK IC50 (nM) (human mGlu3): Inactive

SMILES: Cc1ocnc1COc1cc2c(cc1-c1ccc(F)cc1)C(=O)NC2 [Compound 9, 6-(4-fluorophenyl)-5-((5-methyloxazol-4-yl)methoxy)isoindolin-1-one]
- IC50 (human mGlu2): 0.15 µM
- Human mGlu3 GIRK IC50 (nM) (human mGlu3): Inactive

SMILES: O=C1NCc2cc(OCc3cc4n(n3)CCCO4)c(-c3ccc(F)cc3)cc21 [Compound 10, 5-((6,7-dihydro-5H-pyrazolo[5,1-b][1,3]oxazin-2-yl)methoxy)-6-(4-fluorophenyl)isoindolin-1-one]
- IC50 (human mGlu2): 0.423 µM
- Human mGlu3 GIRK IC50 (nM) (human mGlu3): Inactive

SMILES: N#Cc1cccc(C(=O)N2CC(Oc3cc4c(cc3-c3ccc(F)cc3)C(=O)NC4)C2)c1 [Compound 70, 3-(3-((6-(4-fluorophenyl)-1-oxoisoindolin-5-yl)oxy)azetidine-1-carbonyl)benzonitrile]
- IC50 (rat mGlu2): 4780 nM and > 30000 nM

SMILES: Cn1ccc(N2CC(Oc3cc4c(cc3-c3ccc(F)cc3)C(=O)NC4)C2)n1 [Compound 71, 6-(4-fluorophenyl)-5-((1-(1-methyl-1H-pyrazol-3-yl)azetidin-3-yl)oxy)isoindolin-1-one]
- IC50 (rat mGlu2): 1960 nM

SMILES: Cc1ncc(S(=O)(=O)N2CC(Oc3cc4c(cc3-c3ccc(F)cc3)C(=O)NC4)C2)s1 [Compound 72, 6-(4-fluorophenyl)-5-((1-((2-methylthiazol-5-yl)sulfonyl)azetidin-3-yl)oxy)isoindolin-1-one]
- IC50 (rat mGlu2): 2140 nM

SMILES: Cc1c(S(=O)(=O)N2CC(Oc3cc4c(cc3-c3ccc(F)cc3)C(=O)NC4)C2)cnn1C(F)F [Compound 73, 5-((1-((1-(difluoromethyl)-5-methyl-1H-pyrazol-4-yl)sulfonyl)azetidin-3-yl)oxy)-6-(4-fluorophenyl)isoindolin-1-one]
- IC50 (rat mGlu2): 8040 nM

SMILES: Cc1nocc1S(=O)(=O)N1CC(Oc2cc3c(cc2-c2ccc(F)cc2)C(=O)NC3)C1 [Compound 74, 6-(4-fluorophenyl)-5-((1-((3-methylisoxazol-4-yl)sulfonyl)azetidin-3-yl)oxy)isoindolin-1-one]
- IC50 (rat mGlu2): > 10000 nM

SMILES: O=C1NCc2cc(OC3CN(S(=O)(=O)c4ccc5cnccc5c4)C3)c(-c3ccc(F)cc3)cc21 [Compound 75, 6-(4-fluorophenyl)-5-((1-(isoquinolin-6-ylsulfonyl)azetidin-3-yl)oxy)isoindolin-1-one]
- IC50 (rat mGlu2): > 10000 nM

SMILES: Cc1csc(C)c1S(=O)(=O)N1CC(Oc2cc3c(cc2-c2ccc(F)cc2)C(=O)NC3)C1 [Compound 76, 5-((1-((2,4-dimethylthiophen-3-yl)sulfonyl)azetidin-3-yl)oxy)-6-(4-fluorophenyl)isoindolin-1-one]
- IC50 (rat mGlu2): 1000 nM

SMILES: Cc1cc(S(=O)(=O)N2CC(Oc3cc4c(cc3-c3ccc(F)cc3)C(=O)NC4)C2)nn1C [Compound 77, 5-((1-((1,5-dimethyl-1H-pyrazol-3-yl)sulfonyl)azetidin-3-yl)oxy)-6-(4-fluorophenyl)isoindolin-1-one]
- IC50 (rat mGlu2): 2670 nM

SMILES: Cn1cc(CN2CC(Oc3cc4c(cc3-c3ccc(F)cc3)C(=O)NC4)C2)cn1 [Compound 78, 6-(4-fluorophenyl)-5-((1-((1-methyl-1H-pyrazol-4-yl)methyl)azetidin-3-yl)oxy)isoindolin-1-one]
- IC50 (rat mGlu2): > 10000 nM

SMILES: Cc1nc(CN2CC(Oc3cc4c(cc3-c3ccc(F)cc3)C(=O)NC4)C2)cs1 [Compound 79, 6-(4-fluorophenyl)-5-((1-((2-methylthiazol-4-yl)methyl)azetidin-3-yl)oxy)isoindolin-1-one]
- IC50 (rat mGlu2): 2540 nM

SMILES: Cc1cc(CN2CC(Oc3cc4c(cc3-c3ccc(F)cc3)C(=O)NC4)C2)no1 [Compound 80, 6-(4-fluorophenyl)-5-((1-((5-methylisoxazol-3-yl)methyl)azetidin-3-yl)oxy)isoindolin-1-one]
- IC50 (rat mGlu2): 1990 nM

SMILES: O=C1NCc2cc(OC3CN(Cc4ccc(C(F)(F)F)o4)C3)c(-c3ccc(F)cc3)cc21 [Compound 81, 6-(4-fluorophenyl)-5-((1-((5-(trifluoromethyl)furan-2-yl)methyl)azetidin-3-yl)oxy)isoindolin-1-one]
- IC50 (rat mGlu2): 1670 nM

SMILES: O=C1NCc2cc(OC3CN(Cc4cccnc4Cl)C3)c(-c3ccc(F)cc3)cc21 [Compound 82, 5-((1-((2-chloropyridin-3-yl)methyl)azetidin-3-yl)oxy)-6-(4-fluorophenyl)isoindolin-1-one]
- IC50 (rat mGlu2): 2610 nM

SMILES: O=C1NCc2cc(OC3CN(Cc4ccc5ncccc5c4)C3)c(-c3ccc(F)cc3)cc21 [Compound 83, 6-(4-fluorophenyl)-5-((1-(quinolin-6-ylmethyl)azetidin-3-yl)oxy)isoindolin-1-one]
- IC50 (rat mGlu2): 5000 nM
